Measurements reported in ChEMBL document CHEMBL1201862, “PubChem BioAssay data set” (2004).
Activity calls are given as the source filed them.

Key:
[1] = viability of uninfected HEp-2 cells – cell-based, HTS, cytotoxicity control for RSV inhibitor project, dose response (AID 2410); format: functional; conditions: human respiratory syncytial virus
[2] = cells
[3] = molecular target: T1, Ubiquitin-conjugating enzyme E2 N (Homo sapiens, UniProt P61088); format: functional;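 note: Dose-response confirmation in a TR-FRET assay detecting UBC13-driven polyubiquitin chain formation, inhibition measured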
T1 sequence (P61088 whole entry): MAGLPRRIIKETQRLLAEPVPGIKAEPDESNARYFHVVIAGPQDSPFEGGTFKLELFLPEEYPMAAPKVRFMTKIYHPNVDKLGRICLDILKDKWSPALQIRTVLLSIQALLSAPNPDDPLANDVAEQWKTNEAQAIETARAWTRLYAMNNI

[4] = molecular target: Glyceraldehyde-3-phosphate dehydrogenase (Homo sapiens, UniProt P04406)
[5] = test system: HEK293; experiment: inhibition of NOD1-driven NF-kB reporter – cell-based, luminescence, uHTS, primary screen (AID 1578); format: functional; conditions: Homo sapiens
[6] = molecular target: T2, RNA-binding protein pos-1 (Caenorhabditis elegans, UniProt G5EF15); experiment: disruptors of C. elegans POS-1 RNA interaction – biochemical, fluorescence polarization, dose response (AID 1964);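 note: purified POS-1 fused to maltose binding protein made in E. coli; potency of compounds blocking POS-1 binding to fluorescent RNA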
T2 sequence (G5EF15 whole entry): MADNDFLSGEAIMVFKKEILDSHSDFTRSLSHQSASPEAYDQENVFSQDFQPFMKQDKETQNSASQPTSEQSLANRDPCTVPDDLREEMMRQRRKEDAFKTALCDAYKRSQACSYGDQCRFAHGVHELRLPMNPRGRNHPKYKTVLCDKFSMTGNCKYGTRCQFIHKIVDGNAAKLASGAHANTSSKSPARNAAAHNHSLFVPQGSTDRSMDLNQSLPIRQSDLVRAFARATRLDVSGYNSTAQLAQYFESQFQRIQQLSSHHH

[7] = test system: HEK293; experiment: cells; format: functional, cell-based; conditions: Homo sapiens
[8] = test system: HEK293; experiment: cells; format: functional, cell-based; conditions: Homo sapiens; remark: listed apart in the source
[9] = molecular target: Nucleotide-binding oligomerization domain-containing protein 2 (Homo sapiens, UniProt Q9HC29); experiment: inhibition of NOD2-driven NF-kB reporter – cell-based, luminescence, uHTS, HEK293 (AID 1566); format: functional
[10] = test system: HEK293; experiment: NOD2 signaling inhibitors in MDP-stimulated cells, cell-based, uHTS, luminescence (AID 2001); format: functional; conditions: Homo sapiens
[11] = test system: HEK293; experiment: cells; format: functional, cell-based; conditions: Homo sapiens; remark: listed apart in the source
[12] = molecular target: Cytochrome P450 3A4 (Homo sapiens, UniProt P08684); conditions: Potency;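 note: confirmatory qHTS run detecting inhibitors and substrates of CYP3A4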
[13] = test system: Vero; experiment: cells; format: functional; conditions: Chlorocebus sabaeus
[14] = molecular target: T3, Leucine aminopeptidase (Plasmodium falciparum 3D7, UniProt Q8IL11); experiment: P. falciparum M17LAP inhibitors, primary screen, biochemical, fluorogenic H-Leu-NHMec substrate, 1536-well (AID 1619); format: functional
T3 sequence (Q8IL11 whole entry): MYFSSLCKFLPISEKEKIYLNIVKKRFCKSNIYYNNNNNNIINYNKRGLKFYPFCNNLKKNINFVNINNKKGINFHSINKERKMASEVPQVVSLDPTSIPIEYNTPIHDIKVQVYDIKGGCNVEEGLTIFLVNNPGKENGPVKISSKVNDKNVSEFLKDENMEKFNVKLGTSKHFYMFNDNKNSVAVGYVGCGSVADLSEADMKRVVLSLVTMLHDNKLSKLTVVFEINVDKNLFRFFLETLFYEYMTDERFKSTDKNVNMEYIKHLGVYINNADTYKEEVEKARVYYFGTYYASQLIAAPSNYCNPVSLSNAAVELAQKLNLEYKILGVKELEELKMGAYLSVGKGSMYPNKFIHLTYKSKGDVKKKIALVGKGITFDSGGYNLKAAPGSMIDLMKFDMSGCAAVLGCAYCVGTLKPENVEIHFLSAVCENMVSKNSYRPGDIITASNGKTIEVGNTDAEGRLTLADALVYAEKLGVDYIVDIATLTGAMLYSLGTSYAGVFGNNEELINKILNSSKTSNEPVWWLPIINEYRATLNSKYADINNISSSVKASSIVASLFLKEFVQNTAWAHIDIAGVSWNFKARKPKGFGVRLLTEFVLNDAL

[15] = molecular target: T4, Aminopeptidase N (Plasmodium falciparum FcB1/Columbia, UniProt O96935); experiment: malaria alanyl aminopeptidase activity blockers – biochemical, fluorogenic H-Leu-NHMec substrate, 1536-well (AID 1445); design: species or system Plasmodium falciparum 3D7, 3D7
T4 sequence (O96935 whole entry): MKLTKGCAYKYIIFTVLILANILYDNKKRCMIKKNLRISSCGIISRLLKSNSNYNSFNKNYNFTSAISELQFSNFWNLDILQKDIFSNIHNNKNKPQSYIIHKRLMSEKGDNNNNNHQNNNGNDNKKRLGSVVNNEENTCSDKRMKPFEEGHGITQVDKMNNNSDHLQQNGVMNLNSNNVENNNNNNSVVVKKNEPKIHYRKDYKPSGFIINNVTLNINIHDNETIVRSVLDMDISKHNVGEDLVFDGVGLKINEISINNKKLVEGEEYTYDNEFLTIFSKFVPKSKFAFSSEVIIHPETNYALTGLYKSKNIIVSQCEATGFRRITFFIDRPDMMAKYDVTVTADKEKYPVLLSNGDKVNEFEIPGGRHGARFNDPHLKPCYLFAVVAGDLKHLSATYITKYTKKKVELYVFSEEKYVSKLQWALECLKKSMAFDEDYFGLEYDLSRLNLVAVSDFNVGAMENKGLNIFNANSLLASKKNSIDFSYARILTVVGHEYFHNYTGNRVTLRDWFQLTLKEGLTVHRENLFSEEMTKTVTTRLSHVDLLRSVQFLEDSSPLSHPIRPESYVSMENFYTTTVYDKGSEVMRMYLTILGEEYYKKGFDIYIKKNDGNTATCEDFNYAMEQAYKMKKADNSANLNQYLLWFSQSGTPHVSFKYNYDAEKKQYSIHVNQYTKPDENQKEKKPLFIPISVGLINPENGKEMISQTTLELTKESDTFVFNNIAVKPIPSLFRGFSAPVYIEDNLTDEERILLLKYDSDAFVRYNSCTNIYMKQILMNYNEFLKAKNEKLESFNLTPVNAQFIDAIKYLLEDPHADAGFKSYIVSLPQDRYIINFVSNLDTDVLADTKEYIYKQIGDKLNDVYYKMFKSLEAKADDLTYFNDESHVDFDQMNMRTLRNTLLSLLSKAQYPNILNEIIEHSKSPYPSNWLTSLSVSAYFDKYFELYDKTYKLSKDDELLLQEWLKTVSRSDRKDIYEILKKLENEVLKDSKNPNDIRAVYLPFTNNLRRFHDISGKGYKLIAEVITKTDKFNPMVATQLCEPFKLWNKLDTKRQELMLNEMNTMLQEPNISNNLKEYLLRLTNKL

[16] = molecular target: T5, Replicative DNA helicase DnaB (Mycobacterium tuberculosis, UniProt P9WMR3); experiment: DnaB intein splicing inhibitors, dose response, biochemical, cell-free fluorescence (AID 449749); format: functional
T5 sequence (P9WMR3 whole entry): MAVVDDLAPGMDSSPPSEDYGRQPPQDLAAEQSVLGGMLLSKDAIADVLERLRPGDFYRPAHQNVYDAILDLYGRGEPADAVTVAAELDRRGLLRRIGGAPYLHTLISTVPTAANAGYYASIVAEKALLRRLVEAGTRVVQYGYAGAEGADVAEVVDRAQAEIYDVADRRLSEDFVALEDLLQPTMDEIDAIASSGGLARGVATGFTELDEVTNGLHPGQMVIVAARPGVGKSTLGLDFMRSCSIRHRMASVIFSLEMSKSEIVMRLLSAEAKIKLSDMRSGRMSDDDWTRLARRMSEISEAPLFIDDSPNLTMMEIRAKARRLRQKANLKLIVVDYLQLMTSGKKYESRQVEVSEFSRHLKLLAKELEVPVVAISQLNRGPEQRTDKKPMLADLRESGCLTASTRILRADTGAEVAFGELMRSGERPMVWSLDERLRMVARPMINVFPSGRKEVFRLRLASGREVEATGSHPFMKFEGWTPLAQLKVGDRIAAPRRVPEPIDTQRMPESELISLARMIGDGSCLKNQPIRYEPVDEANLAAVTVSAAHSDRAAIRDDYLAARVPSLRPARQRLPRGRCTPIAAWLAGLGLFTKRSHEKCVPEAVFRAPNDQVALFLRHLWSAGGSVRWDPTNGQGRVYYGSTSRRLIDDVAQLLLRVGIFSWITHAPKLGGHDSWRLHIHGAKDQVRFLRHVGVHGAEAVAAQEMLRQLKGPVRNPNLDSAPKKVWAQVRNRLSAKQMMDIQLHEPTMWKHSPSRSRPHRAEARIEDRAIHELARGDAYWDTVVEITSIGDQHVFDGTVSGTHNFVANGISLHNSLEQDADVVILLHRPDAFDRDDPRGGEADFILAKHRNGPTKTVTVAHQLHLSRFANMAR

[17] = molecular target: T6, Protein RecA (Mycobacterium tuberculosis, UniProt P9WHJ3); experiment: Fluorescence Cell-Free Homogeneous Dose Retest to Identify Inhibitors of RecA-Intein Splicing Activity. [Related pubchem assays (depositor defined):AID2097, AID2223, AID489010, AID492950]; format: functional
T6 sequence (P9WHJ3 whole entry): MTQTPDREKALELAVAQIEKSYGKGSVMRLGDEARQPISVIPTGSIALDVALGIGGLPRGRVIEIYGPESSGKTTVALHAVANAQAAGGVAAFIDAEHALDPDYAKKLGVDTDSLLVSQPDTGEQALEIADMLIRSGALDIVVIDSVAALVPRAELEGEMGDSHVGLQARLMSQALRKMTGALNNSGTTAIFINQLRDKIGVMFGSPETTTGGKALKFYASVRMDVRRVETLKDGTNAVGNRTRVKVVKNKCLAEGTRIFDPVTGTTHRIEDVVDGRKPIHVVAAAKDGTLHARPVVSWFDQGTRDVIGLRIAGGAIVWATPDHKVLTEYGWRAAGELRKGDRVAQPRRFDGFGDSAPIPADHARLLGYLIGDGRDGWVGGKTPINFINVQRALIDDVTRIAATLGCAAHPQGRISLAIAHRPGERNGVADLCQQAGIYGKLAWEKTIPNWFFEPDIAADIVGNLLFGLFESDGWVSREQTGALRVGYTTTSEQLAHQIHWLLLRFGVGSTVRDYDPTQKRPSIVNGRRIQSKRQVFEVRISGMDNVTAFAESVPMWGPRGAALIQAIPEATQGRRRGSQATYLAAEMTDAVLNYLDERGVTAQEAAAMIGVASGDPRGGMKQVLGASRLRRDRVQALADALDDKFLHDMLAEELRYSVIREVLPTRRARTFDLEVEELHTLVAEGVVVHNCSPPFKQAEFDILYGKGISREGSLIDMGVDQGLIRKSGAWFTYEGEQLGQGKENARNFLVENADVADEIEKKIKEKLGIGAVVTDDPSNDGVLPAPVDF

[18] = molecular target: T7, Voltage-gated N-type calcium channel alpha-1B subunit/Amyloid beta A4 precursor protein-binding family A member 1 (Homo sapiens, UniProt Q00975+Q02410); format: protein assay
[19] = molecular target: T7, Voltage-gated N-type calcium channel alpha-1B subunit/Amyloid beta A4 precursor protein-binding family A member 1; format: protein assay; remark: listed apart in the source

Cytochrome P450 3A4, sequence (P08684 whole entry): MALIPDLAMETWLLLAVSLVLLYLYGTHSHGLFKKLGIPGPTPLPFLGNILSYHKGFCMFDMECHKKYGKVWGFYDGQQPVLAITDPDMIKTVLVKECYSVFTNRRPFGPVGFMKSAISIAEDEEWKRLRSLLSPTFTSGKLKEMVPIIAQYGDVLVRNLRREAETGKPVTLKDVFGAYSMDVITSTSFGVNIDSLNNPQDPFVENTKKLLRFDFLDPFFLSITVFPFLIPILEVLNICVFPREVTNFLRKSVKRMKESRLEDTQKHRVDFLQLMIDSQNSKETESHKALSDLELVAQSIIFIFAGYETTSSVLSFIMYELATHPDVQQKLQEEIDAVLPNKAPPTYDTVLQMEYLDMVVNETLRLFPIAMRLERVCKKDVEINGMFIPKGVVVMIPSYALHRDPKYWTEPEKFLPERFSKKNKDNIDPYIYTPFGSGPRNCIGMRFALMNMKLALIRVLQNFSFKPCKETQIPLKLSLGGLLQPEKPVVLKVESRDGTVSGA
Nucleotide-binding oligomerization domain-containing protein 2, sequence (Q9HC29 whole entry, the tested form may be a part): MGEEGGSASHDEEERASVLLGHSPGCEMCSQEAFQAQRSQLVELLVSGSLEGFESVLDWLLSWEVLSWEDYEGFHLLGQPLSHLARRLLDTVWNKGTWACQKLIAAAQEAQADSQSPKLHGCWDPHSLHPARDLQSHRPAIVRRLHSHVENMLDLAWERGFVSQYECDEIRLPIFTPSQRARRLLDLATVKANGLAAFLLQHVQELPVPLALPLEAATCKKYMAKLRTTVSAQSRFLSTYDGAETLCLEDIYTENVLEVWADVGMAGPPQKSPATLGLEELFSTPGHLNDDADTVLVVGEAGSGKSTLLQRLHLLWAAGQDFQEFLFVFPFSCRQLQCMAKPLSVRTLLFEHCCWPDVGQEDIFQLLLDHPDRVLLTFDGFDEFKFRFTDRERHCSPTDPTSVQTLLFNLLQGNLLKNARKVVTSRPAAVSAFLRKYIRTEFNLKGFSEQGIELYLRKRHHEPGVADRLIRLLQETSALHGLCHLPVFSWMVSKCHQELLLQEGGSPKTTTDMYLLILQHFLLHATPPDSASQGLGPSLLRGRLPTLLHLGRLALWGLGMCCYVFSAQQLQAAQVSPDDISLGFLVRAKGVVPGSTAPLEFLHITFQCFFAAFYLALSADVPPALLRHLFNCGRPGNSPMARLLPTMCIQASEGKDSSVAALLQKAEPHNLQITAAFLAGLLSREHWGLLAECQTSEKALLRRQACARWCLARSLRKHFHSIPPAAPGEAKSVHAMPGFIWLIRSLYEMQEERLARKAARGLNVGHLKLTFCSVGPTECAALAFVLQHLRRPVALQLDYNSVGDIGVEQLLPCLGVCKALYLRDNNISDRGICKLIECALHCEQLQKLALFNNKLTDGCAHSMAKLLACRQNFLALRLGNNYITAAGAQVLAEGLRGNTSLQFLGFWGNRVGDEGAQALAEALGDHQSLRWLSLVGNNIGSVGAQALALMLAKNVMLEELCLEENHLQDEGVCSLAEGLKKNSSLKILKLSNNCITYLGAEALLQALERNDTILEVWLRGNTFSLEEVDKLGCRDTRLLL
Glyceraldehyde-3-phosphate dehydrogenase, sequence (P04406 whole entry): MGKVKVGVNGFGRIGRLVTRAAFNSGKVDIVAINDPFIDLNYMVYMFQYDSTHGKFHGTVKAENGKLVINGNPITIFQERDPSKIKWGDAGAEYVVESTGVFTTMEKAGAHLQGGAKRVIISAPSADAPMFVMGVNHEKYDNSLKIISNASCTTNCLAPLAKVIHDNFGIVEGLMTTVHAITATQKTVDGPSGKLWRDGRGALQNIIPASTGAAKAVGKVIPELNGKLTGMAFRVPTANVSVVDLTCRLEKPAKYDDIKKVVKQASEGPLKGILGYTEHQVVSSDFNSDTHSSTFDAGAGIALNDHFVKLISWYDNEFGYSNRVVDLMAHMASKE
T7 sequence (Q00975 whole entry): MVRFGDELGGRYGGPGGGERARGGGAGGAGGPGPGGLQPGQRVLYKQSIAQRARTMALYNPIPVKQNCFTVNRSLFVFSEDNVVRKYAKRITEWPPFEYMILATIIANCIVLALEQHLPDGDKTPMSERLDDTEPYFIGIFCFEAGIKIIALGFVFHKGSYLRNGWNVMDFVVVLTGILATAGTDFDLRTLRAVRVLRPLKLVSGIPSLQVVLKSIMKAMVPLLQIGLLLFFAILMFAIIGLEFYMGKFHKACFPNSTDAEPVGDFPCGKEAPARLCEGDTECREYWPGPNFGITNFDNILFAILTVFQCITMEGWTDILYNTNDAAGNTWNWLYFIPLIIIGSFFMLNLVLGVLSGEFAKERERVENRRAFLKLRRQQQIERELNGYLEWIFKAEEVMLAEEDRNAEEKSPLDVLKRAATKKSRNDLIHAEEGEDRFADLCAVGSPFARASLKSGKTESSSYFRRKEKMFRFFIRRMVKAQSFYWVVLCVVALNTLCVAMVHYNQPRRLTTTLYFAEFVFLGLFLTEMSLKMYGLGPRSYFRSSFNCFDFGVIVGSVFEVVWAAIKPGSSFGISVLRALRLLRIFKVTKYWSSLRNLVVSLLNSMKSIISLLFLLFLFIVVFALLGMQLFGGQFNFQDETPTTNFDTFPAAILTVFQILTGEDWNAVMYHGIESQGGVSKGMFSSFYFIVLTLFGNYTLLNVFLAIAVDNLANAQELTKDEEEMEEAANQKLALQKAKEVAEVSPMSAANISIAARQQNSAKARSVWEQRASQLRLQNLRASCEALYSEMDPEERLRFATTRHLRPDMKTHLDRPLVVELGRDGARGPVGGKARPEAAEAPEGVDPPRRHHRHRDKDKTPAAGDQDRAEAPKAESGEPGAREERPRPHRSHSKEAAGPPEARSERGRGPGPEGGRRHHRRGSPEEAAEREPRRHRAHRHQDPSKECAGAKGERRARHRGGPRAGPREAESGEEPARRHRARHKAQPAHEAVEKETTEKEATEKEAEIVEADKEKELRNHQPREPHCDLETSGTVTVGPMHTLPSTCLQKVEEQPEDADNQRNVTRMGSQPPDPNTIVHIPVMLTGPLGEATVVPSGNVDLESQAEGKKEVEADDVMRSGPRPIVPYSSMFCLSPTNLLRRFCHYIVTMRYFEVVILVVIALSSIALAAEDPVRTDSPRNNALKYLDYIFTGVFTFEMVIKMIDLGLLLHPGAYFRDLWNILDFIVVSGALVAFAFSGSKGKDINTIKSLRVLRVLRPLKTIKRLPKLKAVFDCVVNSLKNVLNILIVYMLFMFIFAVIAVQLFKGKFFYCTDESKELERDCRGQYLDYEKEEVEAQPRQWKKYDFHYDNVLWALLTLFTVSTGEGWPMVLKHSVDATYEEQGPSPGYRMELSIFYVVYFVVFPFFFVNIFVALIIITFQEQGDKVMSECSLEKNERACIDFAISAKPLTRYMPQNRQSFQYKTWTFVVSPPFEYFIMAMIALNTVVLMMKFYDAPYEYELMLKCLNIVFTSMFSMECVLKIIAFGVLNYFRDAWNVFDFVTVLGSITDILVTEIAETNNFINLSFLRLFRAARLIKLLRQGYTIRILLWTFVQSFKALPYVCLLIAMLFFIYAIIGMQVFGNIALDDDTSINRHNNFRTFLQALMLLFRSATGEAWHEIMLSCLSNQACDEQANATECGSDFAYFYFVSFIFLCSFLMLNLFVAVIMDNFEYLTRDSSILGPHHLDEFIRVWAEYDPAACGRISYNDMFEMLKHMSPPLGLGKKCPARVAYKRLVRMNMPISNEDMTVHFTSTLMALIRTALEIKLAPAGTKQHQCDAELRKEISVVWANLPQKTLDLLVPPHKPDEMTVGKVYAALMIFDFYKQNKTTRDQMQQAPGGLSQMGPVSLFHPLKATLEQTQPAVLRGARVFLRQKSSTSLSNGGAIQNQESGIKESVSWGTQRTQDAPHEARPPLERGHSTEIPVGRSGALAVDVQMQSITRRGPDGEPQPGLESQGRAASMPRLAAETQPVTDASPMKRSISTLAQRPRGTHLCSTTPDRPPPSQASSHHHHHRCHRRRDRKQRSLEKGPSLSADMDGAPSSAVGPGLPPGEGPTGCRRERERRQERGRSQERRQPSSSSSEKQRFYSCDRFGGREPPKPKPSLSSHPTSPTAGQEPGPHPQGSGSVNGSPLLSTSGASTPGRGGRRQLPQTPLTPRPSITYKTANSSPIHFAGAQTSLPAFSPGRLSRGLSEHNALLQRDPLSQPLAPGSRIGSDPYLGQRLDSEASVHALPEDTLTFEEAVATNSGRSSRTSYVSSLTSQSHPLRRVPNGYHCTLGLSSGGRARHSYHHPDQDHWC
T7 sequence (Q02410 whole entry): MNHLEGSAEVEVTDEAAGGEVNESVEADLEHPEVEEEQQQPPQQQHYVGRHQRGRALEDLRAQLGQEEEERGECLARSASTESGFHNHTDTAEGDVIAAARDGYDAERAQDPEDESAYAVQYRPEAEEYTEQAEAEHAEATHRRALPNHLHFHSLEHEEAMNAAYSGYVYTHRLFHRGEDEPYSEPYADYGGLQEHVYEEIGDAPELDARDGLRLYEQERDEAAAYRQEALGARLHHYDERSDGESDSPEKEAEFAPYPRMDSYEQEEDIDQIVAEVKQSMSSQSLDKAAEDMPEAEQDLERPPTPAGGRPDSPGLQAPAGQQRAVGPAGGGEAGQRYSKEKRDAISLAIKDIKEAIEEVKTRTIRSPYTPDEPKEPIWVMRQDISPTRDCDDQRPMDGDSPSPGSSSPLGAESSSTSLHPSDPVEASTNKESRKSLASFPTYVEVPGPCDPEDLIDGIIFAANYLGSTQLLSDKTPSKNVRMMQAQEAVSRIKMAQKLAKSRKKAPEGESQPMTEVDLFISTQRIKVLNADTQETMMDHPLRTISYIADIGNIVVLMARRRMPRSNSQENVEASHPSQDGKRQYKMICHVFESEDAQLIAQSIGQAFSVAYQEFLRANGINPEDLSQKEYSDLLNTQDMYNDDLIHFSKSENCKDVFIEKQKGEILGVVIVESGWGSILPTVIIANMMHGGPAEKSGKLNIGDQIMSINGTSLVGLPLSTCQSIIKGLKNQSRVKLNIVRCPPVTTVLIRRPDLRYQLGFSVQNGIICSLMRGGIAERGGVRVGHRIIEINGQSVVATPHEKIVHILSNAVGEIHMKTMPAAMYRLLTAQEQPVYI

COC(=O)c1cc(Nc2cc(C)c3c(O)cccc3n2)cc(C(=O)OC)c1
CC50 [1]: 44.4 µM (active) | IC50 [2]: > 50 µM (active)

COc1ccc(-n2c(C)cc(/C=C3\C(=N)N4N=C(CC(=O)N5CCOCC5)SC4=NC3=O)c2C)c(OC)c1
CC50 [1]: 11.1 µM (active) | IC50 [2]: 11.7 µM (active)

COc1ccccc1NC(=O)c1cc(S(=O)(=O)NCc2ccccc2)ccc1F
IC50 [3]: > 20 µM (inactive)

CCN(CC)C(=O)c1cc(-c2ccc(Cl)cc2Cl)n[nH]1
IC50 [4]: > 10 µM (inconclusive)

O=C1C(Cl)=C(N2CCN(CCO)CC2)C(=O)N1c1ccc(C(F)(F)F)cc1
IC50 [4]: > 50 µM (inconclusive)

COc1ccccc1CNC(=O)C1CCCN1S(=O)(=O)c1cccc2cccnc12 (centres undefined)
IC50 [2]: 18.6 µM (active)

CCOc1cc(/C=C2\C(=N)N3N=C(S(C)(=O)=O)SC3=NC2=O)ccc1OCCOc1cccc(OC)c1
EC50 [5]: > 20 µM (inactive) | EC50 [6]: > 300 µM (not active) | IC50 [7]: > 20 µM (inactive) | IC50 [8]: > 20 µM (inactive) | EC50 [9]: 14.5 µM (active) | IC50 [10]: > 20 µM (inactive) | IC50 [11]: > 20 µM (inactive)

CC1(C)C(O)CC[C@]2(C)C1CC[C@@]1(C)C2C(=O)C=C2[C@@H]3C[C@@](C)(C(=O)O)CC[C@@]3(C)CCC21C (some centres undefined)
AC50 [12]: 39.8 µM (inconclusive)

CCOC(=O)C1=C(COCCN)N=C(C)/C(=C(/O)OC)C1c1ccccc1Cl (centres undefined)
IC50 [3]: > 20 µM (inactive) | CC50 [13]: > 25 µM (active)

Cc1cccc2c3c(ccc12)C1=C(C(=O)C3=O)C(C)CO1 (centres undefined)
AC50 [12]: 12.6 µM (inconclusive)

Cc1c(-c2ccc(OCc3ccccc3)cc2)nc2ccccc2c1C(=O)O
CC50 [1]: 42.6 µM (active) | IC50 [2]: 24.7 µM (active)

Nc1nonc1-c1nc2ccccc2n1CC(=O)N/N=C/c1ccc(-c2ccccc2C(=O)O)o1
IC50 [14]: 73.8 µM (active) | IC50 [15]: 82.7 µM (active)

C=CCSc1nnc(NC(=O)c2nc(SCC)ncc2Cl)s1
IC50 [14]: 10.8 µM (active) | IC50 [15]: 94.3 µM (active)

CCn1c(SCC(=O)Nc2nc(-c3ccccc3)cs2)nnc1-c1ccccc1
EC50 [5]: 7.28 µM (active) | IC50 [7]: 6.13 µM (active) | IC50 [8]: 11.3 µM (active) | EC50 [9]: 7.91 µM (active) | IC50 [10]: 5.74 µM (active) | IC50 [11]: > 20 µM (inactive)

C/C(CC(=O)Nc1cc(C)ccn1)=N\NC(=O)COc1cccc(C)c1
IC50 [14]: 90.2 µM (active) | AC50 [16]: 2.37 µM (active) | EC50 [17]: 1.54 µM (active)

COc1ccc(C(=O)CC(=O)c2c(O)cc(OC)cc2OC)cc1
AC50 [12]: 3.98 µM (inconclusive)

Cc1cc(C)cc(N(C(=O)c2snc(C(N)=O)c2N)C(C(=O)NCC2CCCO2)c2cccs2)c1 (centres undefined)
IC50 [3]: > 20 µM (inactive)

O=c1cc(CO)oc(C(Nc2cccc(C(F)(F)F)c2)c2ccccn2)c1O (centres undefined)
IC50 [18]: 8.71 µM (active) | IC50 [19]: 1.09 µM (active) | IC50 [3]: > 20 µM (inactive)
